Experimental data published in the NIST ThermoML archive (doi:10.1021/je101213p).
Several values for one entry are separate records, joined by “and”; a condition that tells them apart may be missing. Identical values can stand only once. ± gives the expanded uncertainty stated by the source.

How the values were obtained:
[1] = Molar enthalpy of transition or fusion; settings: DSC
[2] = molar heat capacity at constant pressure; settings: 101.33 kPa, Liquid, Large sample (1 g) DSC
[3] = DTA

CCCCCC[n+]1ccn(C)c1.O=S(=O)([N-]S(=O)(=O)C(F)(F)F)C(F)(F)F
Settings	Molar enthalpy of transition or fusion [kcal/mol]	Normal melting temperature [°C]	molar heat capacity at constant pressure
[1], Crystal	6.62 ± 0.43	–	–
[2], 302.86 K	–	–	655.92 ± 22 J/K/mol
[2], 312.83 K	–	–	632.65 ± 21 J/K/mol and 660.84 ± 22 J/K/mol
[2], 322.79 K	–	–	666.66 ± 22 J/K/mol
[2], 322.81 K	–	–	640.7 ± 21 J/K/mol
[2], 332.76 K	–	–	668 ± 22 J/K/mol
[2], 332.78 K	–	–	648.76 ± 21 J/K/mol
[2], 342.73 K	–	–	671.58 ± 22 J/K/mol
[2], 342.76 K	–	–	657.26 ± 22 J/K/mol
[2], 352.7 K	–	–	676.95 ± 22 J/K/mol
[2], 352.72 K	–	–	666.66 ± 22 J/K/mol
[2], 362.67 K	–	–	683.66 ± 23 J/K/mol
[2], 362.68 K	–	–	679.18 ± 22 J/K/mol
[2], 372.64 K	–	–	690.82 ± 23 J/K/mol
[3], Crystal	–	-1.70 ± 0.61	–

CCCCCCCCn1cc[n+](C)c1.O=S(=O)([N-]S(=O)(=O)C(F)(F)F)C(F)(F)F
Settings	Molar enthalpy of transition or fusion [kcal/mol]	Normal melting temperature [°C]	molar heat capacity at constant pressure [J/K/mol]
[1], Metastable crystal	6.56 ± 0.43	–	–
[2], 281.99 K	–	–	693.71 ± 23
[2], 291.95 K	–	–	695.62 ± 23
[2], 302.86 K	–	–	690.39 ± 23
[2], 302.88 K	–	–	692.29 ± 23
[2], 312.83 K	–	–	705.13 ± 23
[2], 312.86 K	–	–	705.6 ± 23
[2], 322.79 K	–	–	714.16 ± 24
[2], 322.84 K	–	–	719.87 ± 24
[2], 332.76 K	–	–	719.87 ± 24
[2], 332.81 K	–	–	732.7 ± 24
[2], 342.72 K	–	–	725.57 ± 24
[2], 342.78 K	–	–	748.39 ± 25
[2], 352.68 K	–	–	730.33 ± 24
[2], 352.74 K	–	–	757.9 ± 25
[2], 362.65 K	–	–	736.98 ± 24
[2], 362.71 K	–	–	767.89 ± 26
[2], 372.62 K	–	–	742.21 ± 25
[2], 372.66 K	–	–	779.78 ± 26
[3], Metastable crystal	–	-23.34 ± 0.61	–
